Common to all, as to format: physicochemical
A short description of series [1]: Neutral equivalent by titration. As to the method:
(§1) Also using titration, the neutral equivalent is determined to be 168, which matches the molecule's molecular weight. However, upon inclusion into a paint formulation, slightly less (2%) of this molecule is needed to regulate pH than a control compound (2-amino-2-ethyl-1,3-propanediol (AEPD)) with a measured neutralization equivalent of 124. Thus, the second pKa contributes to pH regulation and contributes to the value of the compound as a neutralizer in paint formulations.

Series [2] in a line: Thermal analysis (TGA). An excerpt: (§2) Thus, this material can be classified as a zero VOC using any of the three methods outlined in CARB Method 310.
Series [3] can be described thus: VOC determination per CARB Method 310 (vapor pressure, GC test). On the procedure:
Zero VOC can be defined in one of three ways according to California Air Resources Board (CARB) Method 310 for VOC determination: the vapor pressure can be below 0.1 mm Hg at 20° C., the boiling point can be above 216° C., or the compound must pass a gas chromatograph test (EPA Method 18, 8240B, 8260B,
as §2

Series [4] can be described thus: Acid dissociation constants by standard titration method. As to conditions: read-out: acid dissociation constant (pKa). On the procedure:
as §1

Data on 2 compounds can be found in patent publication US9428445B2, “Amine compounds and their use as zero or low VOC neutralizers” (ANGUS Chemical Company, priority 2012, dated 2016).

The structures appear in SMILES notation. Where a name gives a salt, the structure may show the parent alone. Read-outs that look alike come from different tables or passages of the source.

In the case of `CCC(N)(CO)CO` [AEPD, 2-amino-2-ethyl-1,3-propanediol, reference compound], the “neutral equivalent / neutralization equivalent” value in series [1] is 124.

Take `CC(C)(N)CNCC(=O)O` [Example 1, N-[2-(amino)-2-methylpropyl]-glycine (Sodium Salt)]: the boiling point result in series [2] is reported as “no boiling point”. For the same compound, in series [2], the decomposition temperature was greater than 275 °C. Also, the vapor pressure entry in series [3] is given as “no discernable vapor pressure”. The VOC classification entry in series [3] (any of the three methods outlined in CARB Method 310) is “zero VOC”. In addition, the “elution on the GC” value in series [3] (cannot be vaporized, GC testing methods for CARB compliance) is recorded as “does not elute”. Moreover, the pKa came out at 9.9 in series [4] (primary amine) and 6.1 in series [4] (sodium carboxylate). The “neutral equivalent / neutralization equivalent” value in series [1] is listed as 168.

As a reminder, the pKa is the negative logarithm of the acid dissociation constant.
